Assay results published in patent publication US20260285850A1, “SUBSTITUTED OXAZOLIDINONES AND IMIDAZOLINONES AS HERBICIDES” (FMC CORPORATION, priority 2023, published 2026).

Legend:
Assay type in all cases: in vivo
[1] = tested on: ducksalad (Heteranthera limosa); experiment: Test B flooded paddy test, visual plant response rating 0-100; settings: 250 g ai/ha, Flood, applied to paddy water, evaluated after 13 days
Outline: (§1)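 Treatment occurs at the 2-leaf stage by adding compound to floodwater standing 3 cm above the soil, a level kept for the whole test. Plants stay in the greenhouse 13 days before visual comparison with controls.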

[2] = tested on: sedge, umbrella (small-flower umbrella sedge, Cyperus difformis); experiment: as above; settings: 250 g ai/ha, Flood, applied to paddy water, evaluated after 13 days
Outline: as §1

[3] = tested on: barnyardgrass (Echinochloa crusgalli); experiment: as above; settings: 250 g ai/ha, Flood, applied to paddy water, evaluated after 13 days
Outline: as §1

[4] = tested on: rice (Oryza sativa); experiment: as above; settings: 250 g ai/ha, Flood, applied to paddy water, evaluated after 13 days
Outline: as §1

[5] = tested on: green foxtail (Setaria viridis); experiment: Test A preemergence soil spray, visual injury rating 0-100; settings: 10 days, 0 = no effect, 100 = complete control
Outline: (§2)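 Rating: visual, day 10, untreated plants as reference, 0 no effect to 100 full control. Plants were in loam-sand and were treated either preemergence via directed soil spray or postemergence at the one- to two-leaf stage.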

[6] = tested on: ragweed (common ragweed, Ambrosia artemisiifolia); experiment: as above; settings: 10 days, 0 = no effect, 100 = complete control
Outline: as §2

[7] = tested on: soybean (Glycine max); experiment: as above; settings: 10 days, 0 = no effect, 100 = complete control
Outline: as §2

[8] = tested on: blackgrass (Alopecurus myosuroides); experiment: as above; settings: 10 days, 0 = no effect, 100 = complete control
Outline: as §2

[9] = tested on: barnyardgrass (Echinochloa crus-galli); experiment: as above; settings: 10 days, 0 = no effect, 100 = complete control
Outline: as §2

[10] = tested on: ryegrass, Italian (italian ryegrass, Lolium multiflorum); experiment: as above; settings: 10 days, 0 = no effect, 100 = complete control
Outline: as §2

[11] = tested on: wheat (Triticum aestivum); experiment: as above; settings: 500 g ai/ha, 10 days, 0 = no effect, 100 = complete control
Outline: as §2

[12] = tested on: kochia (Bassia scoparia); experiment: as above; settings: 10 days, 0 = no effect, 100 = complete control
Outline: as §2

[13] = tested on: oat, wild (wild oat, Avena fatua); experiment: as above; settings: 10 days, 0 = no effect, 100 = complete control
Outline: as §2

[14] = tested on: corn (Zea mays); experiment: as above; settings: 10 days, 0 = no effect, 100 = complete control
Outline: as §2

[15] = tested on: green foxtail (Setaria viridis); experiment: Test A postemergence application, visual injury rating 0-100; settings: Postemergence, 10 days; for Foxtail, Green plant response rating (0 to 100 scale): 0 is no effect, 100 is complete control
Outline: as §2

[16] = tested on: ragweed (common ragweed, Ambrosia artemisiifolia); experiment: as above; settings: Postemergence, 10 days, 0 is no effect, 100 is complete control
Outline: as §2

[17] = tested on: soybean (Glycine max); experiment: as above; settings: Postemergence, 10 days, 0 is no effect, 100 is complete control
Outline: as §2

[18] = tested on: blackgrass (Alopecurus myosuroides); experiment: as above; settings: Postemergence, 10 days; for Blackgrass plant response rating (0 to 100 scale): 0 is no effect, 100 is complete control
Outline: as §2

[19] = tested on: horseweed (Erigeron canadensis); experiment: as above; settings: Postemergence, 10 days; for Horseweed plant response rating (0 to 100 scale): 0 is no effect, 100 is complete control
Outline: as §2

[20] = tested on: barnyardgrass (Echinochloa crus-galli); experiment: as above; settings: Postemergence, 10 days; for Barnyardgrass plant response rating (0 to 100 scale): 0 is no effect, 100 is complete control
Outline: as §2

[21] = tested on: palmer (palmer amaranth, palmer pigweed, Amaranthus palmeri); experiment: as above; settings: Postemergence, 10 days, 0 is no effect, 100 is complete control
Outline: as §2

[22] = tested on: ryegrass, Italian (italian ryegrass, Lolium multiflorum); experiment: as above; settings: Postemergence, 10 days, 0 is no effect, 100 is complete control
Outline: as §2

[23] = tested on: wheat (Triticum aestivum); experiment: as above; settings: Postemergence, 10 days, 0 is no effect, 100 is complete control
Outline: as §2

[24] = tested on: kochia (Bassia scoparia); experiment: as above; settings: Postemergence, 10 days; for Kochia plant response rating (0 to 100 scale): 0 is no effect, 100 is complete control
Outline: as §2

[25] = tested on: galium (catchweed bedstraw, Galium aparine); experiment: as above; settings: Postemergence, 10 days; for Galium plant response rating (0 to 100 scale): 0 is no effect, 100 is complete control
Outline: as §2

[26] = tested on: oat, wild (wild oat, Avena fatua); experiment: as above; settings: Postemergence, 10 days, 0 is no effect, 100 is complete control
Outline: as §2

[27] = tested on: corn (Zea mays); experiment: as above; settings: Postemergence, 10 days, 0 is no effect, 100 is complete control
Outline: as §2

[28] = tested on: palmer (palmer amaranth, palmer pigweed, Amaranthus palmeri); experiment: Test A preemergence soil spray, visual injury rating 0-100; settings: 1000 g ai/ha, 10 days, 0 = no effect, 100 = complete control
Outline: as §2

COC(=O)[C@H]1C[C@@H](NC(=O)C2(C)CN(c3cc(F)cc(F)c3)C(=O)O2)[C@H]2C[C@H]21 (stereo partly drawn) [Compound 176, methyl (1R,2S,4R,5S)-4-[[3-(3,5-difluorophenyl)-5-methyl-2-oxo-oxazolidine-5-carbonyl]amino]bicyclo[3.1.0]hexane-2-carboxylate]
30: Horseweed plant response rating (0 to 100 scale) ([19]; 500 g ai/ha)
45: Plant response rating, Sedge, Umbrella (0 to 100 scale, 0 is no effect and 100 is complete control) [2]
70: Soybean plant response rating (0 to 100 scale) ([7]; 125 g ai/ha) | Corn plant response rating (0 to 100 scale) ([14]; 125 g ai/ha) | Ragweed plant response rating (0 to 100 scale) ([16]; 125 g ai/ha) | Soybean plant response rating (0 to 100 scale) ([17]; 125 g ai/ha) | Soybean plant response rating (0 to 100 scale) ([17]; 500 g ai/ha)
100: Foxtail, Green plant response rating (0 to 100 scale) ([5]; 500 g ai/ha) | Blackgrass plant response rating (0 to 100 scale) ([8]; 500 g ai/ha) | Barnyardgrass plant response rating (0 to 100 scale) ([9]; 125 g ai/ha) | Barnyardgrass plant response rating (0 to 100 scale) ([9]; 500 g ai/ha) | Ryegrass, Italian plant response rating (0 to 100 scale) ([10]; 125 g ai/ha) | Ryegrass, Italian plant response rating (0 to 100 scale) ([10]; 500 g ai/ha) | Wheat plant response rating (0 to 100 scale) [11] | Kochia plant response rating (0 to 100 scale) ([12]; 500 g ai/ha) | Corn plant response rating (0 to 100 scale) ([14]; 500 g ai/ha) | Barnyardgrass plant response rating (0 to 100 scale) ([20]; 125 g ai/ha) | Barnyardgrass plant response rating (0 to 100 scale) ([20]; 500 g ai/ha) | Ryegrass, Italian plant response rating (0 to 100 scale) ([22]; 125 g ai/ha) | Ryegrass, Italian plant response rating (0 to 100 scale) ([22]; 500 g ai/ha) | Galium plant response rating (0 to 100 scale) ([25]; 500 g ai/ha) | Corn plant response rating (0 to 100 scale) ([27]; 125 g ai/ha) | Corn plant response rating (0 to 100 scale) ([27]; 500 g ai/ha)
0: Ragweed plant response rating (0 to 100 scale) ([6]; 125 g ai/ha) | Ragweed plant response rating (0 to 100 scale) ([6]; 500 g ai/ha) | Horseweed plant response rating (0 to 100 scale) ([19]; 125 g ai/ha)
65: Plant response rating, Ducksalad (0 to 100 scale, 0 is no effect and 100 is complete control) [1]
80: Soybean plant response rating (0 to 100 scale) ([7]; 500 g ai/ha) | Ragweed plant response rating (0 to 100 scale) ([16]; 500 g ai/ha) | Amaranth, Palmer / Pigweed, Palmer plant response rating (0 to 100 scale) ([21]; 125 g ai/ha)
55: Plant response rating, Barnyardgrass (0 to 100 scale, 0 is no effect and 100 is complete control) [3]
35: Plant response rating, Rice (0 to 100 scale, 0 is no effect and 100 is complete control) [4]
90: Foxtail, Green plant response rating (0 to 100 scale) ([5]; 125 g ai/ha) | Blackgrass plant response rating (0 to 100 scale) ([8]; 125 g ai/ha) | Kochia plant response rating (0 to 100 scale) ([12]; 125 g ai/ha) | Oat, Wild plant response rating (0 to 100 scale) ([13]; 125 g ai/ha) | Oat, Wild plant response rating (0 to 100 scale) ([13]; 500 g ai/ha) | Foxtail, Green plant response rating (0 to 100 scale) ([15]; 125 g ai/ha) | Foxtail, Green plant response rating (0 to 100 scale) ([15]; 500 g ai/ha) | Blackgrass plant response rating (0 to 100 scale) ([18]; 125 g ai/ha) | Blackgrass plant response rating (0 to 100 scale) ([18]; 500 g ai/ha) | Amaranth, Palmer / Pigweed, Palmer plant response rating (0 to 100 scale) ([21]; 500 g ai/ha) | Wheat plant response rating (0 to 100 scale) ([23]; 125 g ai/ha) | Wheat plant response rating (0 to 100 scale) ([23]; 500 g ai/ha) | Kochia plant response rating (0 to 100 scale) ([24]; 125 g ai/ha) | Kochia plant response rating (0 to 100 scale) ([24]; 500 g ai/ha) | Galium plant response rating (0 to 100 scale) ([25]; 125 g ai/ha) | Oat, Wild plant response rating (0 to 100 scale) ([26]; 125 g ai/ha) | Oat, Wild plant response rating (0 to 100 scale) ([26]; 500 g ai/ha)

CC1(C(=O)NC2CC=C(C(=O)O)C2)CN(c2cc(F)cc(F)c2)C(=O)N1 (stereo not drawn) [Compound 182]
30: Ragweed plant response rating (0 to 100 scale) ([6]; 1000 g ai/ha)
20: Plant response rating, Barnyardgrass (0 to 100 scale, 0 is no effect and 100 is complete control) [3]
60: Plant response rating, Ducksalad (0 to 100 scale, 0 is no effect and 100 is complete control) [1]
70: Plant response rating, Sedge, Umbrella (0 to 100 scale, 0 is no effect and 100 is complete control) [2]
15: Plant response rating, Rice (0 to 100 scale, 0 is no effect and 100 is complete control) [4]
80: Barnyardgrass plant response rating (0 to 100 scale) ([9]; 1000 g ai/ha) | Horseweed plant response rating ([19]; 1000 g ai/ha, 0 to 100 scale) | Kochia plant response rating ([24]; 1000 g ai/ha, 0 to 100 scale)
90: Blackgrass plant response rating (0 to 100 scale) ([8]; 1000 g ai/ha) | Amaranth, Palmer / Pigweed, Palmer plant response rating (0 to 100 scale) [28] | Ryegrass, Italian plant response rating (0 to 100 scale) ([10]; 1000 g ai/ha) | Kochia plant response rating (0 to 100 scale) ([12]; 1000 g ai/ha) | Foxtail, Green plant response rating ([15]; 1000 g ai/ha, 0 to 100 scale) | Blackgrass plant response rating ([18]; 1000 g ai/ha, 0 to 100 scale) | Barnyardgrass plant response rating ([20]; 1000 g ai/ha, 0 to 100 scale) | Galium plant response rating ([25]; 1000 g ai/ha, 0 to 100 scale)
100: Foxtail, Green plant response rating (0 to 100 scale) ([5]; 1000 g ai/ha)
